The series can be described thus: Release of aptamer from hydrogel (UV 260 nm). Conditions: PBS, 37° C. An excerpt:
Hydrogel was formed similar to Example 5. An aptamer similar to Macugen of the following sequence of nucleotides and functional groups: CfGmGmAAUfCfAmGmUfGmAmAmUfGmCfUfUfAmUfAmCfAmUfCfCfGm3′(SEQ ID NO:1), with 5′ end caped with 6 carbon (C6) and 3′ end caped with a 3′-dT-S′ and Cy3 fluorescent dye, was used as an aptamer example. Gm or Am and Cf or Uf represent 2-methoxy and 2-fluoro variants of their respective purines and pyrimidines, and C, A, U and G code for cytidylic, adenylic, uridylic and guanylic acids. Hydrogels were formed similar to Example 5, except that the solution before gel formation was added to the API in powder form. The gel was incubated at 37° C. for 2 days before release experiment. For the release experiment, a small portion of gel (between […]) were transferred by a 3 mL disposable plastic pipettes into a 10 ml glass vial at ambient temperature, and the mass was measured for the final release calculation. The glass vial was slowly filled up with 5 ml of PBS solutions to minimize the disturbing of gel. The release was performed at 37° C. in triplicate. At each predetermined time point, 0.5 h, 1 h, 2 h, and 4 h in this case, the sample was gently shake for 10 s and sit at ambient temperature for 10 min before 1000 μl of releasing buffer were taken for UV quantification at 260 nm. The experiments were performed in triplicate.

{3'dT} = capped with 3'-dT; {C6} = six-carbon (C6) cap; m = 2'-O-methyl; r = 2'-OH (RNA); f = 2'-fluoro

Results on 1 substance are retold here after patent publication US20230173074A1, “BIOCOMPATIBLE MATERIAL AND METHODS FOR MAKING AND USING THE SAME” (PLERYON THERAPEUTICS (SHENZHEN) LIMITED, priority 2020, published 2023).

For the substance “aptamer: modified RNA aptamer similar to Macugen (SEQ ID NO:1), 5′ C6 cap, 3′-dT and Cy3 dye (CGGAAUCAGUGAAUGCUUAUACAUCCG; sugars from the 5' end fmmrrffmmfmmmfmfffmfmfmfffm, 5' {C6}, 3' {3'dT}, backbone not given here; Cy3 fluorescent dye attached, further chemistry not fully specified)”, the “duration of release from hydrogel” value is, setting by setting: (hydrogel Ap1 (FIG. 21)) “about 4 hours”; (hydrogel Ap2 (FIG. 22)) “about 4 hours”.
